# Experiments:
# Assay in all cases: Growth inhibition GI50 in vitro (CCK8/MTT, 72 h)
# Type in all cases: cell-based, human
# H1975 (EGFR L858R/T790M) = settings: Homo sapiens, NCI-H1975; EGFR mutant cell line; range of GI50; read-out: GI50 H1975
# HCC827 (EGFR dE746-A750) = settings: Homo sapiens, HCC827; EGFR mutant cell line; range of GI50; read-out: GI50 HCC827
# PC-9 (EGFR dE746-A750) = settings: Homo sapiens; EGFR mutant cell line; range of GI50; read-out: GI50 PC-9
# [1] = tested on: PC-9ER (EGFR delE746-A750/T790M); settings: Homo sapiens, PC-9/ER; EGFR mutant cell line; range of GI50; read-out: GI50 PC9ER
# N87 (HER2 Amp) = settings: Homo sapiens; HER2 positive cell line; range of GI50; read-out: GI50 N87
# AU565 (Her2 amp) = settings: Homo sapiens, AU565; HER2 positive cell line; range of GI50; read-out: GI50 AU-565
# SK-BR-3 (Her2 amp) = settings: Homo sapiens, SK-BR-3; HER2 positive cell line; range of GI50; read-out: GI50 SK-BR-3
# [2] = tested on: A431 (EGFR WT, amplification and high expression); settings: Homo sapiens, A-431; EGFR wild type cell line; range of GI50; read-out: GI50 A431
# A549 (EGFR WT) = settings: Homo sapiens, A549; EGFR wild type cell line; range of GI50; read-out: GI50 A549
# [3] = tested on: H1299 (EGFR wt, Nras Q61K); settings: Homo sapiens, NCI-H1299; EGFR wild type cell line; range of GI50; read-out: GI50 H1299
# [4] = tested on: H460 (EGFR wt, Kras G61H); settings: Homo sapiens, NCI-H460; EGFR wild type cell line; range of GI50; read-out: GI50 H460
Structure (SMILES),GI50 (H1975 (EGFR L858R/T790M)) [nM],GI50 (HCC827 (EGFR dE746-A750)) [nM],GI50 (PC-9 (EGFR dE746-A750)) [nM],GI50 [1] [nM],GI50 (SK-BR-3 (Her2 amp)) [nM],GI50 [2] [nM],GI50 (A549 (EGFR WT)) [nM],GI50 [3] [nM],GI50 [4] [nM],GI50 (N87 (HER2 Amp)) [nM],GI50 (AU565 (Her2 amp)) [nM]
"C=CC(=O)Nc1cc(Nc2cc(-c3cn(C)c4ccccc34)ncn2)c(OC)cc1N1CCN(CCN2CCCC2)CC1 [Compound 165, N-(4-methoxyl-5-(6-(1-methyl-1H-indol-3-yl)-pyrimidin-4-ylamino)-2-(4-(2-(pyrrolidin-1-yl)-ethyl)-piperazin-1-yl)-phenyl)-acrylamide]",100 to 1000,10 to 100,< 10,10 to 100,100 to 1000,10 to 100,> 1000,> 1000,> 1000,100 to 1000,100 to 1000
"C=CC(=O)Nc1cc(Nc2cc(-c3cn(C)c4ccccc34)ncn2)c(OC)cc1N(C)CCN1CCCC1 [Compound 178, N-(4-methoxyl-5-(6-(1-methyl-1H-indol-3-yl)-pyrimidin-4-ylamino)-2-(methyl-(2-pyrrolidin-1-yl-ethyl)-amino)-phenyl)-acrylamide]",10 to 100,< 10,< 10,10 to 100,100 to 1000,100 to 1000,> 1000,> 1000,> 1000,10 to 100,100 to 1000
C=CC(=O)Nc1cc(Nc2cc(-c3cn(CCC)c4ccccc34)ncn2)c(OC)cc1N(C)CCN(C)C [Compound 182],10 to 100,10 to 100,10 to 100,10 to 100,10 to 100,100 to 1000,> 1000,> 1000,> 1000,100 to 1000,10 to 100
"C=CC(=O)Nc1cc(Nc2cc(-c3cn(C)c4cc(F)ccc34)ncn2)c(OC)cc1N(C)CCN(C)C [Compound 186, N-(4-methoxyl-5-(6-(6-fluoro-1-methyl-1H-indol-3-yl)-pyrimidin-4-ylamino)-2-(2-(dimethylamino-ethyl)-methyl-amino)-phenyl)-acrylamide]",10 to 100,10 to 100,10 to 100,10 to 100,10 to 100,100 to 1000,> 1000,> 1000,> 1000,10 to 100,10 to 100
"C=CC(=O)Nc1cc(Nc2cc(-c3cn(C4CCCC4)c4ccc(F)cc34)ncn2)c(OC)cc1N(C)CCN(C)C [Compound 193, N-(5-(6-(5-fluoro-1-cyclopentyl-1H-indol-3-yl)-pyrimidin-4-ylamino)-4-methoxyl-2-((2-dimethylamino-ethyl)-methyl-amino)-phenyl)-acrylamide]",10 to 100,< 10,< 10,10 to 100,> 1000,> 1000,> 1000,> 1000,> 1000,100 to 1000,100 to 1000

# Second part, led by results:
GI50 (H1975 (EGFR L858R/T790M)) [nM],GI50 (HCC827 (EGFR dE746-A750)) [nM],GI50 (PC-9 (EGFR dE746-A750)) [nM],GI50 [1] [nM],GI50 (SK-BR-3 (Her2 amp)) [nM],GI50 [2] [nM],GI50 (A549 (EGFR WT)) [nM],GI50 [3] [nM],GI50 [4] [nM],Structure (SMILES),GI50 (N87 (HER2 Amp)) [nM],GI50 (AU565 (Her2 amp)) [nM]
10 to 100,< 10,< 10,< 10,10 to 100,100 to 1000,> 1000,> 1000,> 1000,"C=CC(=O)Nc1cc(Nc2cc(-c3cn(CC)c4ccccc34)ncn2)c(OC)cc1N(C)CCN(C)C [Compound 181, N-{2-((2-dimethylamino-ethyl)-methylamino)-5-[6-(1-ethyl-1H-indol-3-yl)-pyrimidin-4-ylamino]-4-methoxyl-phenyl}-acrylamide]",10 to 100,10 to 100
10 to 100,< 10,< 10,< 10,< 10,100 to 1000,> 1000,> 1000,> 1000,"C=CC(=O)Nc1cc(Nc2cc(-c3cn(C)c4ccc(F)cc34)ncn2)c(OC)cc1N(C)CCN(C)C [Compound 188, N-(2-((2-dimethylamino-ethyl)-methylamino)-5-(6-(5-fluoro-1-methyl-1H-indol-3-yl)-pyrimidin-4-ylamino)-4-methoxyl-phenyl)-acrylamide]",10 to 100,10 to 100

# Reference: patent US10342796B2, “Acrylanilide derivative, preparation method, and applications thereof in pharmacy” (Ancureall Pharmaceutical (Shanghai) Co., Ltd., priority 2015, dated 2019)
